Source: patent US11793880B2, “Conjugates of quaternized tubulysin compounds” (Seagen Inc., priority 2015, dated 2023)

How the values were obtained:
Format in all cases: cell-based
L540cy, HL = assay: In vitro assays - tubulysin free drugs, CellTiter-Glo growth inhibition; settings: L540cy, 96 h
Procedure: (§1) In vitro assays. Cells cultured in log-phase growth were seeded for 24 h in 96-well plates containing 150 μL RPMI 1640 supplemented with 20% FBS. Serial dilutions of antibody-drug conjugates in cell culture media were prepared at 4× working concentrations; 50 μL of each dilution was added to the 96-well plates. Following addition of ADC, cells were incubated with test articles for 4 d at 37° C. After 96 h, growth inhibition was assessed by CellTiter-Glo® (Promega, Madison, WI) and luminescence was measured on a plate reader. The IC50 value, determined in triplicate, is defined here as the concentration that results in a 50% reduction in cell growth relative to untreated controls.
(§2) In vitro assays—tubulysin free drugs. Cells were treated for 96 hours with tubulysin ether analogs (40-42) or tubulysin M (7), then assessed for viability as described in the methods.
(§3) The tubulysin ester analogs (133-137) and unsaturated ether analogs (176-179) were tested in vitro for potency relative to tubulysin M (7), following a 96 hour exposure. As shown by IC50 values (nM) of Table 2, Tubulysin esters 133-136 performed comparably to tubulysin M, with similar potencies across of the cell lines.
(§4) A series of analogues of the ethyl ether tubulysin compound TubOEt (41) were synthesized on solid phase lanterns that maintain the ethyl ether substitution, while either varying the residue at the Ile position (203-215) or the Mep position (216-221). Following cleavage from the solid phase, the analogues were obtained in >85% purity and tested without further purification. The compounds were tested in vitro for potency relative to a sample of TubOEt synthesized in parallel on a lantern (41-lantern), following a 96 hour exposure, with IC5O values expressed in nM (Table 3). While in many cases an attenuation in activity was observed relative to 41-lantern, some well-tolerated substitutions were found. […] While this stereochemical preference is not observed when Ile is replaced with O-methyl threonine (207) or O-methyl allothreonine (206), bulkier substituents led to a greater differentiation. […] Replacement of the Mep residue was generally less-well tolerated.

HL60/RV, MDR + AML = assay: as above; settings: Homo sapiens, HL-60, 96 h
Procedure: as §1, §2, §3, §4

HL60, AML = assay: as above; settings: Homo sapiens, HL-60, 96 h
Procedure: as §1, §2, §3, §4

Karpas299, ALCL = assay: as above; settings: Homo sapiens, KARPAS-299, 96 h, free drug
Procedure: as §1, §2, §3

L428, MDR + HL = assay: as above; settings: Homo sapiens, L-428, 96 h, free drug
Procedure: as §1, §2, §3

U266 MM = assay: In vitro assays - TubOEt analogues, CellTiter-Glo growth inhibition; settings: Homo sapiens, U-266; Table 3; lantern-made analogues >85% purity, 96 hour exposure
Procedure: as §1, §4

HepG2, HCC = assay: as above; settings: Homo sapiens, Table 3, lantern-made analogues >85% purity, 96 hour exposure
Procedure: as §1, §4

Ramos, NHL = assay: as above; settings: Homo sapiens, Table 3, lantern-made analogues >85% purity, 96 hour exposure
Procedure: as §1, §4

[1] = Table 2, free drug, 96 hour exposure
[2] = Table 1 (examples), free drug, 96 hours
[3] = Table 3, lantern-made analogues >85% purity, 96 hour exposure

Structure (SMILES)	IC50 (L540cy, HL; Table 1 (examples), free drug) [nM]	IC50 (L540cy, HL; [1]) [nM]	IC50 (HL60/RV, MDR + AML; [2]) [nM]	IC50 (HL60/RV, MDR + AML; [1]) [nM]	IC50 (HL60, AML; [2]) [nM]	IC50 (HL60, AML; [1]) [nM]	IC50 (Karpas299, ALCL; Table 1 (examples), 96 hours) [nM]	IC50 (Karpas299, ALCL; Table 2, 96 hour exposure) [nM]	IC50 (L428, MDR + HL; Table 1 (examples), 96 hours) [nM]	IC50 (L428, MDR + HL; Table 2, 96 hour exposure) [nM]	IC50 (L540cy, HL; [3]) [nM]	IC50 (HL60/RV, MDR + AML; [3]) [nM]	IC50 (HL60, AML; [3]) [nM]	IC50 (U266 MM) [nM]	IC50 (HepG2, HCC) [nM]	IC50 (Ramos, NHL) [nM]
CC[C@H](C)[C@H](NC(=O)[C@H]1CCCCN1C)C(=O)N(C)[C@H](C[C@@H](OC(C)=O)c1nc(C(=O)N[C@@H](Cc2ccccc2)C[C@H](C)C(=O)O)cs1)C(C)C [Compound 7, tubulysin M, reference compound]	0.14	0.08	2.2	1	0.3	0.15	0.17	0.04	0.11	0.04	–	–	–	–	–	–
CC[C@H](C)[C@H](NC(=O)[C@H]1CCCCN1C)C(=O)N(C)[C@H](C[C@@H](OC)c1nc(C(=O)N[C@@H](Cc2ccccc2)C[C@H](C)C(=O)O)cs1)C(C)C [Compound 40, (2S,4R)-4-(2-((1R,3R)-3-((2S,3S)—N,3-dimethyl-2-((R)-1-methylpiperidine-2-carboxamido)pentanamido)-1-methoxy-4-methylpentyl)thiazole-4-carboxamido)-2-methyl-5-phenylpentanoic acid]	0.12	–	29	–	0.13	–	0.19	–	0.5	–	–	–	–	–	–	–
CCO[C@H](C[C@H](C(C)C)N(C)C(=O)[C@@H](NC(=O)[C@H]1CCCCN1C)C(CC)CC)c1nc(C(=O)N[C@@H](Cc2ccccc2)C[C@H](C)C(=O)O)cs1 [Compound 203, (2S,4R)-4-(2-((1R,3R)-1-ethoxy-3-((S)-3-ethyl-N-methyl-2-((R)-1-methylpiperidine-2-carboxamido)pentanamido)-4-methylpentyl)thiazole-4-carboxamido)-2-methyl-5-phenylpentanoic acid]	–	–	–	–	–	–	–	–	–	–	1	604	8	0.5	8	0.4
CCO[C@H](C[C@H](C(C)C)N(C)C(=O)[C@@H](NC(=O)[C@H]1CCCCN1C)[C@H](C)OC)c1nc(C(=O)N[C@@H](Cc2ccccc2)C[C@H](C)C(=O)O)cs1 [Compound 206, (2S,4R)-4-(2-((1R,3R)-1-ethoxy-3-((2S,3S)-3-methoxy-N-methyl-2-((R)-1-methylpiperidine-2-carboxamido)butanamido)-4-methylpentyl)thiazole-4-carboxamido)-2-methyl-5-phenylpentanoic acid]	–	–	–	–	–	–	–	–	–	–	6	> 1000	16	3	41	2
CCO[C@H](C[C@H](C(C)C)N(C)C(=O)[C@@H](NC(=O)[C@H]1CCCCN1C)[C@@H](C)OC)c1nc(C(=O)N[C@@H](Cc2ccccc2)C[C@H](C)C(=O)O)cs1 [Compound 207, (2S,4R)-4-(2-((1R,3R)-1-ethoxy-3-((2S,3R)-3-methoxy-N-methyl-2-((R)-1-methylpiperidine-2-carboxamido)butanamido)-4-methylpentyl)thiazole-4-carboxamido)-2-methyl-5-phenylpentanoic acid]	–	–	–	–	–	–	–	–	–	–	6	> 1000	9	2	46	2
CCO[C@H](C[C@H](C(C)C)N(C)C(=O)[C@@H](NC(=O)[C@H]1CCCCN1C)C1Cc2ccccc2C1)c1nc(C(=O)N[C@@H](Cc2ccccc2)C[C@H](C)C(=O)O)cs1 [Compound 208, (2S,4R)-4-(2-((1R,3R)-3-((S)-2-(2,3-dihydro-1H-inden-2-yl)-N-methyl-2-((R)-1-methylpiperidine-2-carboxamido)acetamido)-1-ethoxy-4-methylpentyl)thiazole-4-carboxamido)-2-methyl-5-phenylpentanoic acid]	–	–	–	–	–	–	–	–	–	–	58	> 1000	221	40	250	44
CCO[C@H](C[C@H](C(C)C)N(C)C(=O)[C@@H](NC(=O)[C@H]1CCCCN1C)[C@H](C)CC)c1nc(C(=O)N[C@@H](Cc2ccccc2)C[C@H](C)C(=O)O)cs1 [Compound 209, (2S,4R)-4-(2-((1R,3R)-3-((2S,3R)—N,3-dimethyl-2-((R)-1-methylpiperidine-2-carboxamido)pentanamido)-1-ethoxy-4-methylpentyl)thiazole-4-carboxamido)-2-methyl-5-phenylpentanoic acid]	–	–	–	–	–	–	–	–	–	–	12	> 1000	15	8	50	7
CCO[C@H](C[C@H](C(C)C)N(C)C(=O)C(NC(=O)[C@H]1CCCCN1C)C12CC(F)(C1)C2)c1nc(C(=O)N[C@@H](Cc2ccccc2)C[C@H](C)C(=O)O)cs1 (stereo partly drawn) [Compound 211, (2S,4R)-4-(2-((1R,3R)-1-ethoxy-3-(2-(3-fluorobicyclo[1.1.1]pentan-1-yl)-N-methyl-2-((R)-1-methylpiperidine-2-carboxamido)acetamido)-4-methylpentyl)thiazole-4-carboxamido)-2-methyl-5-phenylpentanoic acid]	–	–	–	–	–	–	–	–	–	–	2	224	5	2	14	1
CCO[C@H](C[C@H](C(C)C)N(C)C(=O)[C@H](CC1CC1)NC(=O)[C@H]1CCCCN1C)c1nc(C(=O)N[C@@H](Cc2ccccc2)C[C@H](C)C(=O)O)cs1 [Compound 212, (2S,4R)-4-(2-((1R,3R)-3-((S)-3-cyclopropyl-N-methyl-2-((R)-1-methylpiperidine-2-carboxamido)propanamido)-1-ethoxy-4-methylpentyl)thiazole-4-carboxamido)-2-methyl-5-phenylpentanoic acid]	–	–	–	–	–	–	–	–	–	–	2	810	8	1	19	1
CCO[C@H](C[C@H](C(C)C)N(C)C(=O)[C@H](CC1CCCCC1)NC(=O)[C@H]1CCCCN1C)c1nc(C(=O)N[C@@H](Cc2ccccc2)C[C@H](C)C(=O)O)cs1 [Compound 213, (2S,4R)-4-(2-((1R,3R)-3-((S)-3-cyclohexyl-N-methyl-2-((R)-1-methylpiperidine-2-carboxamido)propanamido)-1-ethoxy-4-methylpentyl)thiazole-4-carboxamido)-2-methyl-5-phenylpentanoic acid]	–	–	–	–	–	–	–	–	–	–	20	> 1000	42	9	70	10
CCO[C@H](C[C@H](C(C)C)N(C)C(=O)[C@@H](NC(=O)[C@H]1CCCCN1C)[C@H](C)OC(C)(C)C)c1nc(C(=O)N[C@@H](Cc2ccccc2)C[C@H](C)C(=O)O)cs1 [Compound 214, (2S,4R)-4-(2-((1R,3R)-3-((2S,3S)-3-(tert-butoxy)-N-methyl-2-((R)-1-methylpiperidine-2-carboxamido)butanamido)-1-ethoxy-4-methylpentyl)thiazole-4-carboxamido)-2-methyl-5-phenylpentanoic acid]	–	–	–	–	–	–	–	–	–	–	30	> 1000	190	22	91	20
CCO[C@H](C[C@H](C(C)C)N(C)C(=O)[C@@H](NC(=O)[C@@H](C(C)C)N(C)C)[C@@H](C)CC)c1nc(C(=O)N[C@@H](Cc2ccccc2)C[C@H](C)C(=O)O)cs1 [Compound 220, (2S,4R)-4-(2-((3R,6S,9R,11R)-6-((S)-sec-butyl)-3,9-diisopropyl-2,8-dimethyl-4,7-dioxo-12-oxa-2,5,8-triazatetradecan-11-yl)thiazole-4-carboxamido)-2-methyl-5-phenylpentanoic acid]	–	–	–	–	–	–	–	–	–	–	13	> 1000	299	10	41	10
